Tests used:
tau protein [1] = target: T1, tau protein (Homo sapiens, UniProt P10636); assay: Fluorescence photograph of total tau protein content in HEK293 tau cells; assay type: cell-based; conditions: different concentrations
T1 construct: HEK293 tau cells (stably expressing wild type full length tau protein); expressed in transfected cells

tau protein [2] = target: T1, tau protein; assay: Immunoblot of total tau protein (tau5 antibody) in HEK293 tau cells after 24 h treatment; assay type: cell-based; conditions: HEK293 tau cells stably expressing wild type full length tau, effect at 1 μM, 10 μM and 20 μM (tested 0, 0.01, 0.1, 1, 10, 20 μM)
Procedure: HEK293 tau cells (stably expressing wild type full length tau protein) is subjected to cell culture and pharmaceutical treatment, and after the HEK293 tau cells were cultured in DMEM medium for 24 hours, the micromolecular compounds prepared in the above example with various concentrations (0 μM, 0.01 μM, 0.1 μM, 1 μM, 10 μM, 20 μM) were added, the cells were further cultured for 24 hours. The cells were lysed with RIPA liquid and the cell extraction solution was collected, the proteins in the cell extraction solution were separated with 10% polyacrylamide gel electrophoresis (PAGE), and subsequently immunoblotted with anti-total tau protein antibody (tau5), and the tau protein content was quantitatively analyzed. The detailed operation procedures for preparation of samples, measurement of protein content in the samples, and the immunoblotting process were performed with reference to the following content.
(1) The growth condition and density of cells in the cell culture plates were observed under a microscope;
(2) PBS and cell culture plate were precooled on ice, a mixed liquor consisting of 1× buffer solution+PMSF (1:100)+protease inhibitor cocktail (1:1000) was prepared; 80 μl of the mixed liquor was added into each pore of the 6-well plate, and 150 μl of the mixed liquor was added into a culture dish with a diameter of 6 cm; […]

T1 sequence (P10636 1-441 isoform P10636-8): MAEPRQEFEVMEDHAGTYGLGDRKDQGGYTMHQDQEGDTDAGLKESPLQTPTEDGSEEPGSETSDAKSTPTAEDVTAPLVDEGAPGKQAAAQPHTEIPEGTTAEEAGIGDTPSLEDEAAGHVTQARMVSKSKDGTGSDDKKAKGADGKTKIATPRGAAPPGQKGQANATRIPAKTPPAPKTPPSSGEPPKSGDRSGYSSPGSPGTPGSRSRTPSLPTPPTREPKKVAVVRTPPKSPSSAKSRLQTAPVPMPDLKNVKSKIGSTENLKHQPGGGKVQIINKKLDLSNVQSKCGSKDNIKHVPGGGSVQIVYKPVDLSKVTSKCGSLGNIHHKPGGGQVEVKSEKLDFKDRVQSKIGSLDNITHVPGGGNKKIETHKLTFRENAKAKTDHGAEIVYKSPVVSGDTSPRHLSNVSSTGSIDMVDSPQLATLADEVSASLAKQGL

Q: Which “total tau protein content in the HEK293 tau cells (fluorescence photograph, FIG. 4)” value (tau protein [1]) does the source give for `CC(=O)N1CCCN(c2nc(NCCc3cccs3)nc(N(C)CC(=O)NCCOCCOCCOCC(=O)N[C@H](C(=O)N3C[C@H](O)C[C@H]3C(=O)NCc3ccc(-c4scnc4C)cc3)C(C)(C)C)n2)CC1` [Compound 4] here?
A: reducing total tau protein content in the HEK293 tau cells

Q: What about the “content of tau protein in cells (immunoblot, quantitative analysis, FIG. 2 and FIG. 3)” value (tau protein [2]) of the same compound?
A: dose-dependently reduce the content of tau protein in cells

Source: patent US12186400B2, “Micromolecular compound specifically degrading tau protein, and application thereof” (Shanghai Qiangrui Biotech Co., Ltd., priority 2018, dated 2025)
